Laboratory results reported in patent US10118966B2, “Anti-EGFR monoclonal antibody, methods of making, and uses thereof in the treatment of cancer” (Shanghai Biomabs Pharmaceuticals Co., Ltd., priority 2015, dated 2018).
Read-outs that look alike come from different tables or passages of the source.

Legend:
[1] = tested on: metastatic colorectal cancer; details: EPIC, cited from earlier work
[2] = tested on: metastatic colorectal cancer; assay: CMAB009 Ph2/3 trial; format: in vivo, human
Protocol: 501 patients were identified and randomized in a 2:1 manner to group 1 or group 2. […] Patients in both groups were treated until the disease progressed or the patient reached an unacceptable level of toxicity.
Patients were evaluated for radiologic response in both group 1 and group 2. […] Note the overall response rate (ORR) in Table 6 was determined according to the sum of the rate of CR and PR, and the disease control rate (DCR) was determined according to the sum of the rates of CR, PR, and SD.

[3] = radiologic response, n = 648 / n = 650
[4] = radiologic response, n = 337 / n = 164

CCc1c2c(nc3ccc(OC(=O)N4CCC(N5CCCCC5)CC4)cc13)-c1cc3c(c(=O)n1C2)COC(=O)[C@]3(O)CC [Irinotecan monotherapy, irinotecan]
Overall survival [1]: 10.0 months
Time to disease progression [1]: 2.6 months
Disease control rate, no. of patients ([1]; n = 648 / n = 650): 298
Disease control rate, rate in parentheses ([1]; n = 648 / n = 650): (45.8)
Overall response rate, no. of patients ([1]; n = 648 / n = 650): 27
Overall response rate, rate in parentheses ([1]; n = 648 / n = 650): (4.2
Complete response, no. of patients [1, 3]: 1
Complete response, rate in parentheses [1, 3]: (0.2)
Partial response, no. of patients [1, 3]: 26
Partial response, rate in parentheses [1, 3]: (4.0)
Progressive disease, no. of patients [1, 3]: 243
Progressive disease, rate in parentheses [1, 3]: (37.4)
Stable disease, no. of patients [1, 3]: 271
Stable disease, rate in parentheses [1, 3]: (41.7)
Unable to evaluate, no. of patients [1, 3]: 72
Unable to evaluate, rate in parentheses [1, 3]: (11.1)
Time to disease progression ([2]; CMAB009 Ph2/3 trial): 3.2 months
Test drug-related death AE, no. of patients ([2]; N = 342 / N = 170): 0
At least one ADR, % ([2]; human, in vivo): (74.1%)
At least one ADR, no. of patients ([2]; human, in vivo): 126
At least one AE which lead to stop drug treatment, % ([2]; human, in vivo): (15.9%)
At least one AE which lead to stop drug treatment, no. of patients ([2]; human, in vivo): 27
At least one AE, % ([2]; human, in vivo): (87.1%)
At least one AE, no. of patients ([2]; human, in vivo): 148
At least one Level III or above ADR, % ([2]; human, in vivo): (5.9%)
At least one Level III or above ADR, no. of patients ([2]; human, in vivo): 10
At least one Level III or above AE, % ([2]; human, in vivo): (7.1%)
At least one Level III or above AE, no. of patients ([2]; human, in vivo): 12
At least one Level III or above important AE, % ([2]; human, in vivo): (6.5%)
At least one Level III or above important AE, no. of patients ([2]; human, in vivo): 11
At least one SAE, % ([2]; human, in vivo): (4.7%)
At least one SAE, no. of patients ([2]; human, in vivo): 8
At least one important AE, % ([2]; human, in vivo): (70.6%)
At least one important AE, no. of patients ([2]; human, in vivo): 120
At least one test drug-related SAE, % ([2]; human, in vivo): (0.6%)
At least one test drug-related SAE, no. of patients ([2]; human, in vivo): 1
Grade 3-4 adverse events: Abdominal pain, no. of patients ([2]; human, in vivo): 0
Grade 3-4 adverse events: Acne-like rash, no. of patients ([2]; human, in vivo): 0
Grade 3-4 adverse events: Anemia, no. of patients ([2]; human, in vivo): 3
Grade 3-4 adverse events: Anemia, rate in parentheses ([2]; human, in vivo): 1.8
Grade 3-4 adverse events: Any, no. of patients ([2]; human, in vivo): 57
Grade 3-4 adverse events: Asthenia, no. of patients ([2]; human, in vivo): 6
Grade 3-4 adverse events: Asthenia, rate in parentheses ([2]; human, in vivo): 3.7
Grade 3-4 adverse events: Diarrhea, no. of patients ([2]; human, in vivo): 12
Grade 3-4 adverse events: Diarrhea, rate in parentheses ([2]; human, in vivo): 7.3
Grade 3-4 adverse events: Fever, no. of patients ([2]; human, in vivo): 1
Grade 3-4 adverse events: Fever, rate in parentheses ([2]; human, in vivo): 0.9
Grade 3-4 adverse events: Nausea and vomiting, no. of patients ([2]; human, in vivo): 16
Grade 3-4 adverse events: Nausea and vomiting, rate in parentheses ([2]; human, in vivo): 9.8
Grade 3-4 adverse events: Neutropenia, no. of patients ([2]; human, in vivo): 14
Grade 3-4 adverse events: Neutropenia, rate in parentheses ([2]; human, in vivo): 8.5
Grade 3-4 adverse events: Stomatitis, no. of patients ([2]; human, in vivo): 0
Grade 3-4 adverse events: Thrombocytopenia, no. of patients ([2]; human, in vivo): 0
Complete response, no. of patients [2, 4]: 1
Complete response, rate in parentheses [2, 4]: (0.6)
Partial response, no. of patients [2, 4]: 20
Partial response, rate in parentheses [2, 4]: (12.2)
Progressive disease, no. of patients [2, 4]: 44
Progressive disease, rate in parentheses [2, 4]: (26.8)
Stable disease, no. of patients [2, 4]: 86
Stable disease, rate in parentheses [2, 4]: (52.4)
Unable to evaluate, no. of patients [2, 4]: 13
Unable to evaluate, rate in parentheses [2, 4]: (7.9)
Overall response rate, no. of patients ([2]; sum of CR and PR, n = 337 / n = 164): 21
Disease control rate, no. of patients ([2]; sum of CR, PR and SD, n = 337 / n = 164): 107
Overall response rate, rate in parentheses ([2]; sum of the rate of CR and PR, n = 337 / n = 164): (12.8
Disease control rate, rate in parentheses ([2]; sum of the rates of CR, PR, and SD, n = 337 / n = 164): (65.2
